Converted amounts (≈) assume the structure as drawn.
Experiments:
Enterococcus faecium [1] = assay: Antimicrobial activity against vancomycin-resistant Enterococcus faecium 1119175 by broth dilution method in presence of 4% HSA; type: functional
Enterococcus faecium [2] = assay: Antimicrobial activity against vancomycin-resistant Enterococcus faecium ATCC 51559 by broth dilution method; type: functional
Enterococcus faecium [3] = assay: Bactericidal activity against vancomycin-resistant Enterococcus faecium 1119175 expressing vanB gene assessed as change in bacterial count at 16 ug/ml by time-kill assay; type: functional
Enterococcus faecium [4] = assay: Antimicrobial activity against vancomycin-resistant Enterococcus faecium 1059060 by broth dilution method in presence of 4% HSA; type: functional
[5] = Cmax in healthy human male at 600 mg, po every 12 hrs by LC/MS/MS analysis; type: ADME, organism-based; set-up: dose 600 mg, route oral; details: in vivo
Enterococcus faecalis [6] = assay: Bactericidal activity against vancomycin-susceptible Enterococcus faecalis ATCC 29212 assessed as change in bacterial count at 16 ug/ml by time-kill assay; type: functional
Enterococcus faecium [7] = assay: Bactericidal activity against vancomycin-resistant Enterococcus faecium ATCC 51559 expressing vanA gene assessed as change in bacterial count at 16 ug/ml by time-kill assay; type: functional
Enterococcus faecalis [8] = assay: Bactericidal activity against vancomycin-resistant Enterococcus faecalis 1058946 expressing vanA gene assessed as change in bacterial count at 4 ug/ml by time-kill assay; type: functional
Enterococcus faecium [9] = assay: Bactericidal activity against vancomycin-resistant Enterococcus faecium 1059060 expressing vanA gene assessed as change in bacterial count at 4 ug/ml by time-kill assay; type: functional
Enterococcus faecalis [10] = assay: Bactericidal activity against vancomycin-susceptible Enterococcus faecalis ATCC 29212 assessed as change in bacterial count at 4 ug/ml by time-kill assay; type: functional
Enterococcus faecium [11] = assay: Antimicrobial activity against vancomycin-resistant Enterococcus faecium 1059060 by broth dilution method; type: functional
Enterococcus faecium [12] = assay: Antimicrobial activity against vancomycin-resistant Enterococcus faecium ATCC 51559 by broth dilution method in presence of 4% HAS; type: functional
Enterococcus faecium [13] = assay: Antimicrobial activity against vancomycin-resistant Enterococcus faecium 1119175 by broth dilution method; type: functional
Enterococcus faecalis [14] = assay: Bactericidal activity against vancomycin-resistant Enterococcus faecalis ATCC 51299 expressing vanB gene assessed as change in bacterial count at 4 ug/ml by time-kill assay; type: functional
Enterococcus faecium [15] = assay: Bactericidal activity against vancomycin-resistant Enterococcus faecium ATCC 51559 expressing vanA gene assessed as change in bacterial count at 4 ug/ml by time-kill assay; type: functional
Enterococcus faecalis [16] = assay: Bactericidal activity against vancomycin-resistant Enterococcus faecalis 1058946 expressing vanA gene assessed as change in bacterial count at 16 ug/ml by time-kill assay; type: functional
Enterococcus faecium [17] = assay: Bactericidal activity against vancomycin-resistant Enterococcus faecium 1059060 expressing vanA gene assessed as change in bacterial count at 16 ug/ml by time-kill assay; type: functional
Enterococcus faecium [18] = assay: Bactericidal activity against vancomycin-resistant Enterococcus faecium 1119175 expressing vanB gene assessed as change in bacterial count at 4 ug/ml by time-kill assay; type: functional
Enterococcus faecalis [19] = assay: Bactericidal activity against vancomycin-resistant Enterococcus faecalis ATCC 51299 expressing vanB gene assessed as change in bacterial count at 16 ug/ml by time-kill assay; type: functional
Enterococcus faecalis [20] = assay: Bactericidal activity against vancomycin-resistant Enterococcus faecalis ATCC 51299 expressing vanB gene assessed as change in bacterial count at 64 ug/ml by time-kill assay; type: functional
Enterococcus faecalis [21] = assay: Antimicrobial activity against vancomycin-susceptible Enterococcus faecalis ATCC 29212 by broth dilution method; type: functional
Enterococcus faecalis [22] = assay: Antimicrobial activity against vancomycin-resistant Enterococcus faecalis ATCC 51299 by broth dilution method; type: functional
Enterococcus faecalis [23] = assay: Antimicrobial activity against vancomycin-resistant Enterococcus faecalis 1058946 by broth dilution method in presence of 4% HSA; type: functional
Enterococcus faecalis [24] = assay: Bactericidal activity against vancomycin-resistant Enterococcus faecalis 1058946 expressing vanA gene assessed as change in bacterial count at 64 ug/ml by time-kill assay; type: functional
Enterococcus faecium [25] = assay: Bactericidal activity against vancomycin-resistant Enterococcus faecium 1119175 expressing vanB gene assessed as change in bacterial count at 64 ug/ml by time-kill assay; type: functional
[26] = Free fraction in healthy human male at 1000 mg, iv every 12 hrs by LC/MS/MS analysis; type: ADME, organism-based; details: in vivo
Enterococcus faecalis [27] = assay: Antimicrobial activity against vancomycin-resistant Enterococcus faecalis ATCC 51299 by broth dilution method in presence of 4% HSA; type: functional
[28] = Cmax in healthy human male at 1000 mg, iv every 12 hrs by LC/MS/MS analysis; type: ADME, organism-based; set-up: dose 1000 mg, route intravenous; details: in vivo
Enterococcus faecalis [29] = assay: Antimicrobial activity against vancomycin-susceptible Enterococcus faecalis ATCC 29212 by broth dilution method in presence of 4% HSA; type: functional
Enterococcus faecium [30] = assay: Bactericidal activity against vancomycin-resistant Enterococcus faecium 1059060 expressing vanA gene assessed as change in bacterial count at 64 ug/ml by time-kill assay; type: functional
Enterococcus faecalis [31] = assay: Antimicrobial activity against vancomycin-resistant Enterococcus faecalis 1058946 by broth dilution method; type: functional
Enterococcus faecium [32] = assay: Bactericidal activity against vancomycin-resistant Enterococcus faecium ATCC 51559 expressing vanA gene assessed as change in bacterial count at 64 ug/ml by time-kill assay; type: functional
Enterococcus faecalis [33] = assay: Bactericidal activity against vancomycin-susceptible Enterococcus faecalis ATCC 29212 assessed as change in bacterial count at 64 ug/ml by time-kill assay; type: functional

| Structure (SMILES) | MIC (Enterococcus faecium [1]) | MIC (Enterococcus faecium [2]) | log10CFU/ml (Enterococcus faecium [3]) | MIC (Enterococcus faecium [4]) | log10CFU/ml (Enterococcus faecalis [6]) | log10CFU/ml (Enterococcus faecium [7]) | MIC (Enterococcus faecium [11]) | MIC (Enterococcus faecium [12]) | MIC (Enterococcus faecium [13]) | log10CFU/ml (Enterococcus faecalis [16]) | log10CFU/ml (Enterococcus faecium [17]) | log10CFU/ml (Enterococcus faecalis [19]) | also measured |
| --- | --- | --- | --- | --- | --- | --- | --- | --- | --- | --- | --- | --- | --- |
| CC(=O)NC[C@H]1CN(c2ccc(N3CCOCC3)c(F)c2)C(=O)O1 [LINEZOLID] | 2 µg/mL | 1 µg/mL (≈ 2.96 µM) | -0.72 | 1 µg/mL | 0.11 | -2 | 1 µg/mL (≈ 2.96 µM) | 2 µg/mL | 2 µg/mL (≈ 5.93 µM) | 0.08 | -0.42 | -0.35 | Cmax [5]: 16000 ng/mL; log10CFU/ml (Enterococcus faecalis [8]): 0.78; log10CFU/ml (Enterococcus faecium [9]): -0.35; log10CFU/ml (Enterococcus faecalis [10]): 0.13; log10CFU/ml (Enterococcus faecalis [14]): -0.5; log10CFU/ml (Enterococcus faecium [15]): -0.63; log10CFU/ml (Enterococcus faecium [18]): 0.2 |
| CN[C@H](CC(C)C)C(=O)N[C@H]1C(=O)N[C@@H](CC(N)=O)C(=O)N[C@H]2C(=O)N[C@H]3C(=O)N[C@H](C(=O)N[C@H](C(=O)O)c4cc(O)cc(O)c4-c4cc3ccc4O)[C@H](O)c3ccc(c(Cl)c3)Oc3cc2cc(c3O[C@@H]2O[C@H](CO)[C@@H](O)[C@H](O)[C@H]2O[C@H]2C[C@](C)(N)[C@H](O)[C@H](C)O2)Oc2ccc(cc2Cl)[C@H]1O [VANCOMYCIN] | > 128 µg/mL | > 128 µg/mL | 1.1 | > 128 µg/mL | -1.7 | 2.6 | > 128 µg/mL | > 128 µg/mL | > 128 µg/mL | 2.5 | 2.3 | 2.3 | log10CFU/ml (Enterococcus faecalis [20]): 0.85; MIC (Enterococcus faecalis [21]): 2 µg/mL (≈ 1.38 µM); MIC (Enterococcus faecalis [22]): 128 µg/mL (≈ 88.3 µM); MIC (Enterococcus faecalis [23]): > 128 µg/mL; log10CFU/ml (Enterococcus faecalis [24]): 2.3; log10CFU/ml (Enterococcus faecium [25]): 1.2; fraction unbound at 12 h [26]: 0.54; MIC (Enterococcus faecalis [27]): 128 µg/mL; Cmax [28]: 64000 ng/mL; MIC (Enterococcus faecalis [29]): 2 µg/mL; log10CFU/ml (Enterococcus faecium [30]): 2.2; MIC (Enterococcus faecalis [31]): > 128 µg/mL; log10CFU/ml (Enterococcus faecium [32]): 2.2; log10CFU/ml (Enterococcus faecalis [33]): -0.76 |
